{"source": "ChEMBL document CHEMBL3045953", "about": "“Pyrazolo[3,4-d]pyrimidine analogues: synthesis, characterization and their in vitro antiamoebic activity” (Med Chem Res, 2013)"}
{"test_system": "Entamoeba histolytica", "assay": "Antiamoebic activity against Entamoeba histolytica HM-1:IMSS trophozoite assessed as growth inhibition after 72 hr by microdilution method", "format": "functional, organism-based", "conditions": "not given", "units": {"IC50": "µM"}}
{"smiles": "Cc1ccc(S(=O)(=O)n2nc(-c3ccccc3)c3c(N)ncnc32)cc1", "IC50": 0.57}
{"smiles": "Nc1ncnc2c1c(-c1ccccc1)nn2S(=O)(=O)c1ccc([N+](=O)[O-])cc1", "IC50": 2.52}
{"smiles": "CC(=O)Nc1ccc(S(=O)(=O)n2nc(-c3ccccc3)c3c(N)ncnc32)cc1", "IC50": 0.68}
{"smiles": "Nc1ncnc2c1c(-c1ccccc1)nn2S(=O)(=O)c1ccc(Cl)cc1", "IC50": 3.23}
{"smiles": "Nc1ncnc2c1c(-c1ccccc1)nn2S(=O)(=O)c1cc(Cl)ccc1Cl", "IC50": 2.37}
{"smiles": "Nc1ncnc2c1c(-c1ccccc1)nn2S(=O)(=O)c1ccc2ccccc2c1", "IC50": 3.11}
{"smiles": "Nc1ncnc2c1c(-c1ccccc1)nn2S(=O)(=O)c1ccccc1", "IC50": 4.24}
{"smiles": "CS(=O)(=O)n1nc(-c2ccccc2)c2c(N)ncnc21", "IC50": 5.15}
{"smiles": "Cc1ccc(-c2cc(-c3cccc(-c4cc(-c5ccc(C)cc5)nc(N5CCCC5)n4)c3)nc(N3CCCC3)n2)cc1", "IC50": 0.16}
{"test_system": "MCF7", "assay": "Cytotoxicity against Homo sapiens (human) MCF-7 cells assessed as decrease in number of viable cells after 48 hr by MTT assay", "format": "ADME, cell-based", "conditions": "MCF7, 48 h", "units": {"IC50": "µM"}}
{"smiles": "Cc1ccc(S(=O)(=O)n2nc(-c3ccccc3)c3c(N)ncnc32)cc1", "IC50": "> 250"}
{"smiles": "CC(=O)Nc1ccc(S(=O)(=O)n2nc(-c3ccccc3)c3c(N)ncnc32)cc1", "IC50": "> 250"}
{"smiles": "Cc1ncc([N+](=O)[O-])n1CCO", "note": "[METRONIDAZOLE]", "IC50": "> 250"}
